The target of assay [1] is thrombin (Homo sapiens, UniProt P00734). The assay can be described thus: thrombin time (TT) plasma clotting test. It is filed as biochemical. The following applies: Table 3; twofold prolongation compared to control; read-out: A: anticoagulant IC50, TT. The method, then:
(§1) Anticoagulant activity (i.e. inhibition of the proteolytic reactions in the process) is measured by anticoagulant tests, e.g. in the thrombin time (TT), activated partial thromboplastin time (APTT) and prothrombin time (PT) tests [E. J. W. Bovie et al., Mayo Clinic Laboratory Manual of Haemostasis; W. B. Saunders Co., Philadelphia (1971)]. Plasma, inhibited in spontaneous coagulation, e.g. citrate-plasma, is made to coagulate and the required coagulation time is measured. Upon the action of anticoagulants the coagulation time is prolonged proportionally to the inhibition of the reaction(s) in the process. The anticoagulant effect can be characterised by the substance concentration required to prolong the coagulation time twofold compared to the control (IC50). The effect of anticoagulants on individual coagulant proteases is measured by the amidolytic method [R. Lottenberg et al., Methods in Enzymol. 80, 341 (1981); G. Cleason, Blood Coagulation and Fibrinolysis 5, 411 (1994)]. The isolated active factor (e.g. thrombin, fXa) and its chromogen or fluorogen peptide-amide substrate are reacted in the presence or absence of the inhibitor, resp. The enzyme inhibiting action is characterised by the inhibitory constant (IC50) measured during amidolysis.
(§2) In the TT test coagulation is initiated by the thrombin added to the citrate plasma. In the system 22 pmol/ml of thrombin is functioning and its inhibition can be measured on the fibrinogen (one of the natural substrates of thrombin) in the presence of plasma components. In the APTT and PT tests the full coagulation process takes place. Depending on the activator fX is activated either by the extrinsic or the intrinsic pathway. The generated fXa activates prothrombin to thrombin which, in turn, triggers plasma coagulation. The coagulation time is prolonged if the enzymes or one of them is inhibited by the inhibitor. In the APTT and PT tests at most 40 pmol/ml Xa can be generated (this is the full amount of factor X present in both systems) while 150 pmol/ml (APTT) and 350 pmol/ml (PT) of thrombin are generated [B. Kaiser et al., Thromb. Res. 65, 157 (1992)].
(§3) The in vitro anticoagulant effects of the compounds of general formula (I) was measured by the prothrombin time (PT), activated partial thromboplastin time (APTT) and thrombin time (TT) tests [D. Bagdy et al., Thromb. Haemost. 67, 325 (1992)]. The fxa-inhibiting effect of the compounds was also determined using the Bz-Ile-Glu-Gly-Arg-pNA chromogen substrate (see method M6).

In assay [2] the test system is citrate plasma. Briefly: activated partial thromboplastin time (APTT) plasma clotting test. In kind it is biochemical. The following applies: Table 3; twofold prolongation compared to control; read-out: A: anticoagulant IC50, APTT. The protocol:
as §1, §2, §3

Assay [3] deals with T1, clot-bound fXa (Homo sapiens, UniProt P00742).
T1 construct: from tissue; host or cells: clot of recalcified human platelet-rich plasma
T1 sequence (P00742 235-488 limits assumed): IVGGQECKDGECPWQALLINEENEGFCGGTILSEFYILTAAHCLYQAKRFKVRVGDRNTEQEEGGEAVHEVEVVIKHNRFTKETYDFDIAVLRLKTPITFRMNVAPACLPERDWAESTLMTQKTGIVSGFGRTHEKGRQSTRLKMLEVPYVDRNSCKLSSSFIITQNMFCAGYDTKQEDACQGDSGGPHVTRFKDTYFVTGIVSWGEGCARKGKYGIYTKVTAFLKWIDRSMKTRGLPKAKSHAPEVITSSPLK
T1 sequence (P00742 41-179 partner limits assumed): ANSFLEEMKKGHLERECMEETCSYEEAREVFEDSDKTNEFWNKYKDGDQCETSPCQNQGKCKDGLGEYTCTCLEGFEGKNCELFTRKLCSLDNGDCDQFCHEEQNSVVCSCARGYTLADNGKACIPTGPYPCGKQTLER
Briefly: inhibition of plasma clot-bound factor Xa (Methods M1, M2). In kind it is biochemical. The following applies: text b187, well below. The method, then:
Plasma-clot was obtained by recalcificating platelet-rich human plasma, and fibrin gel by clotting human fibrinogen with human thrombin. For the activity measures of fXa and thrombin Z-D-Arg-Gly-Arg-pNA or Tos-Gly-Pro-Arg-pNA substrates were used in agreement with Methods M1-M3.
Preparation of Clots from Human Plasma
a) Platelet-rich plasma is prepared by centrifuging a 9:1 mixture of human blood and 3.8% sodium citrate solution for 5 min. at 240×g.
b) 200 μl platelet-rich plasma and 80 μl 40 mM CaCl2 solution are allowed to stand at room temperature for 1 hour. The thus-formed clot is washed with 6×2 ml of 0.9% NaCl solution with gentle stirring to remove the residual enzymes (thrombin and factor Xa). The washing medium is assayed for thrombin-like activity as follows:
c) To 400 μl of washing medium 100 μl of 1 mM Tos-Gly-Pro-Arg-pNA substrate solution is added, the mixture is incubated for 30 min at 37° C., then the reaction is stopped with 100 μl of 50% acetic acid. From this mixture 150 μl aliquots are applied onto a 96-well microtitre plate and the extinction coefficients are measured at 405 nm (ELISA READER SLT Laborinstrument GmbH, Austria). […]
c) From each reaction vessel 150 μl is applied onto a 96 well microtitre plate and extinction coefficients are measured at 405 nm (ELISA READER SLT Laborinstrument GmbH, Austria). […]

Assay [4] has as its system citrate plasma. Briefly: prothrombin time (PT) plasma clotting test. In kind it is biochemical. The protocol:
as §1, §2, §3

Assay [5] concerns the target T2, isolated human fXa (Homo sapiens, UniProt P00742).
T2 construct: The isolated active factor (e.g. thrombin, fXa) and its chromogen or fluorogen peptide-amide substrate are reacted; purchased SIGMA
The assay can be described thus: fXa inhibition in solution, amidolytic method on Bz-Ile-Glu-Gly-Arg-pNA chromogen substrate (Method M6). It is filed as biochemical. The following applies: Table 3; isolated human fXa, Bz-Ile-Glu-Gly-Arg-pNA; read-out: B: fXa inhibiting IC50. The protocol: as §1, §3
Determination of Factor Xa Inhibition in Solution on a 96-well Microtitre Plate
a) By means of phosphate buffer (0.1M sodium phosphate and 0.05M sodium chloride, pH=7.4) 1.3 E/ml solution is prepared from human factor Xa (SIGMA), and 0.1-1.0-10 and 100 μg/ml solutions from the peptide inhibitors. The Bz-Ile-Glu-Gly-Arg-pNA substrate is used in distilled water solution ([…]).
b) From the control and the peptide inhibitor solutions (3 parallel samples of each concentration) 30-30 μl aliquots are placed into the wells. 30 μl of factor Xa, 90 μl of buffer and 150 μl of substrate are added to the peptide solution and the extinction is determined after 10 min. at 405 nm. Thereafter the steps are the same as in M2/c.

The target in assay [6] is tissue plasminogen activator (tPA) (Homo sapiens, UniProt P00750). The assay can be described thus: fibrin-plate method, plasmin formation induced by tPA. The following applies: related to the activity of C1 (1/IC50 = 1). It is filed as biochemical. The source says:
(§4) The inhibitory effect of the new compounds of the invention on plasmin (PL) as well as on plasmin formation induced by tissue plasminogen activator (tPA) and urokinase (UK) was examined by the fibrin-plate method [D. Bagdy et al.: Thromb. Haemost. 67, 325 (1992)]. Compounds C1 and C5 served as controls. […] V. Jackson et al.: J. Cardiovasc. Pharmacol. 21, 587 (1993))]. In Table 4 the results obtained with the new compounds 1 and 2 as well as those with controls C1 and C5 are presented as an example.

Assay [7] has as its target urokinase (UK) (Homo sapiens, UniProt P00749). Briefly: fibrin-plate method, plasmin formation induced by urokinase. In kind it is biochemical. The following applies: related to the activity of C1 (1/IC50 = 1).
Excerpt: as §4

The subject of assay [8] is thrombin-induced blood platelet aggregation. Briefly: ex vivo inhibition of thrombin-induced blood platelet aggregation (PAI) in rabbits after p.o. dosing. Set-up: species or system rabbit. The following applies: p.o. 5 mg/kg. The protocol: (§5) The anticoagulant and platelet aggregation inhibiting effect of the compounds of general formula (I) was studied in New Zealand white rabbits ex vivo according to D. Bagdy et al. [Thromb. Haemost. 67, 357 (1992)]. The compounds were dissolved in buffered isotonic saline solution and administered i.v. (0,04-5.0 mg/kg) or by infusion (0.25-5.0 mg/kg/h) or subcutaneously (0.5-6.0 mg/kg) or p.o. (2.5-20 mg/kg). The effect of the compounds was detectable already within 30 minutes following p.o. administration, peak values were attained after 60-180 minutes and the therapeutic level was maintained dose-dependently for 3→6 hours.
(§6) The in vivo effect of ethoxycarbonyl-3-cyclobutyl-D-alanyl-L-prolyl-L-arginine aldehyde (1) is presented in detail in Tables 6 and 7. The corresponding values of C1 are listed as controls. The compound was administered p.o. in doses of 5 mg/kg. The blood samples drawn from the caudal vein in every 30-60 minutes were analysed. The whole blood clotting time (WBCT) and the inhibition of thrombin-induced blood platelet aggregation (PAI) were determined. The activated partial thromboplastin time (APTT) and the thrombin time (TT) in the citrate plasma obtained from the blood sample were also measured. The APTT and TT values are compiled in Table 6 and the WBCT and PAI values in Table 7.

Assay [9] concerns New Zealand white rabbits. Briefly: ex vivo TT in citrate plasma of rabbits after p.o. dosing. The arrangement: species or system rabbit. To be noted: p.o. 5 mg/kg, 90 min. The method, then:
as §5, §6

The target in assay [10] is plasmin (PL) (Homo sapiens, UniProt P00747). Briefly: fibrin-plate method, plasmin. To be noted: related to the activity of C1 (1/IC50 = 1). In kind it is biochemical.
plasmin (PL), sequence (P00747 581-810 limits assumed, species assumed): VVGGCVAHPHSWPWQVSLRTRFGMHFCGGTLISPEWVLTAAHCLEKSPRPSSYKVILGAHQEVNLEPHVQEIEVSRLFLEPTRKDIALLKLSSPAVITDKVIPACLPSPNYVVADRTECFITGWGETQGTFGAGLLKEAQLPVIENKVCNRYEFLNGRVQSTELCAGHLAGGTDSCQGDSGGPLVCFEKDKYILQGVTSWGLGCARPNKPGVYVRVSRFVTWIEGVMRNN
plasmin (PL), sequence (P00747 97-580 partner limits assumed, species assumed): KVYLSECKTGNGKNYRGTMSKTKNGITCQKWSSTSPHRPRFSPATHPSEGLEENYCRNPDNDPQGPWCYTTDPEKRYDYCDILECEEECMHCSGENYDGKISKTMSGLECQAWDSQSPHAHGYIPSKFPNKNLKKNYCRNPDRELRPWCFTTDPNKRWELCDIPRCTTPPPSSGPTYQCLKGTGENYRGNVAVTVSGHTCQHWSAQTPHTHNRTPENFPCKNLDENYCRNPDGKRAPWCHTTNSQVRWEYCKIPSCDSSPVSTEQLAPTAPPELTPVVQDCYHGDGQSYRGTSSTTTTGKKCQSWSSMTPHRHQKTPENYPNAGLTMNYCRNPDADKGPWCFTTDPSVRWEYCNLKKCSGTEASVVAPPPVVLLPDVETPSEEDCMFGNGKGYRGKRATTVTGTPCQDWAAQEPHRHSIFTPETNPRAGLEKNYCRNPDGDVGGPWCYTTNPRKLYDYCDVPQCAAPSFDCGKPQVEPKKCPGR
Excerpt: as §4

The conditions of assay [11]: C. V. Jackson et al. 1993; cited from earlier work.

Results on 2 compounds are retold here after patent publication US6235707A, “Anticoagulant peptidyl-arginine aldehyde derivatives” (Gyogyszerkutato Intezet Kft., priority 1996, dated 2001).

A value given as a limit tells only on which side of the number the result lay.

tissue plasminogen activator (tPA), sequence (P00750 36-562, species assumed): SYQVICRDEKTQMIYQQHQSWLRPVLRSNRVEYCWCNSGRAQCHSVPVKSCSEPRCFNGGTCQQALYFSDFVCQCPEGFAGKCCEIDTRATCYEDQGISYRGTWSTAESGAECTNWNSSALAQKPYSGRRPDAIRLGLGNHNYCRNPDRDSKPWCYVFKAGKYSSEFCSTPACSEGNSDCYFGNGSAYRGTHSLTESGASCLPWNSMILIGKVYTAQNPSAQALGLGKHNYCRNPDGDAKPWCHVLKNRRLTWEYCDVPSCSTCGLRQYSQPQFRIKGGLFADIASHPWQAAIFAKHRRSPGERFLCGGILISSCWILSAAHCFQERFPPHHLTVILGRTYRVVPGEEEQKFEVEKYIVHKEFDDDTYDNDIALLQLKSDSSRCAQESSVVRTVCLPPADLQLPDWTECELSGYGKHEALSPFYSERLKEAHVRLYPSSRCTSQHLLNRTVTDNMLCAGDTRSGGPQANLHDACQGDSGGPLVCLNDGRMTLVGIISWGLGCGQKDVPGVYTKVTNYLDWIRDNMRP
T2 sequence (P00742 235-488 limits assumed): as the sequence (P00742 235-488 limits assumed) above
T2 sequence (P00742 41-179 partner limits assumed): as the sequence (P00742 41-179 partner limits assumed) above

`CC(C)OC(=O)N[C@H](CC1CCC1)C(=O)N1CCC[C@H]1C(=O)N[C@H](C=O)CCCNC(=N)N` [Example 3, Isopropoxycarbonyl-3-cyclobutyl-D-alanyl-L-prolyl-L-arginine aldehyde]: the IC50 in assay [1] was 190 nM; in assay [2], 600 nM; in assay [3] it was under 1000 nM; in assay [4] (Table 3, twofold prolongation compared to control, read-out: A: anticoagulant IC50, PT), 1700 nM; in assay [5], 36 nM.
As to `CN[C@H](Cc1ccccc1)C(=O)N1CCC[C@H]1C(=O)N[C@H](C=O)CCCNC(=N)N` [Example C1, D-MePhe-Pro-Arg-H, reference compound], the “B: relative efficiency, tPA” value in [6] amounted to 1.0. Further, the “B: relative efficiency, UK” value in [7] was 1.0. The “PAI (%), percentual inhibition of platelet aggregation” value was 1.0% in assay [8] (0 min); 52.8 ± 14.7% in [8] (30 min); 58.4 ± 15.6% in assay [8] (45 min); 54.2 ± 11.6% in [8] (60 min); 83.2 ± 8.9% in assay [8] (90 min); 75.2 ± 12.3% in assay [8] (120 min). Further, the results for the “PAI (%), percentual inhibition of platelet aggregation” value in assay [8] (180 min) and in assay [8] (240 min) were 47.5 ± 20.9% and 32.2 ± 16.0%, respectively. Besides, the concentration for half-maximal inhibition (IC50) in [4] (Table 2, concentration prolonging clotting time twofold, read-out: A: anticoagulation IC50, PT) came to 2930 nM. Further, the “TT relative clotting time” value in [9] stood at 10.50 ± 4.59. Also, the “B: relative efficiency, PL” value in assay [10] came to 1.0. In addition, in [11], the “antifibrinolytic effect in vivo” value is listed as “insignificant”.
